biological target: T1, human factor XIIIa (Homo sapiens, UniProt P00488); assay: bi-substrate, fluorescence-based trans-glutamination assay; assay type: biochemical; conditions: pH 7.4, 37° C., 10 min incubation, N,N-dimethylcasein and dansylcadaverine substrates; read-out: FXIIIa IC50
T1 sequence (P00488 39-732 limits assumed): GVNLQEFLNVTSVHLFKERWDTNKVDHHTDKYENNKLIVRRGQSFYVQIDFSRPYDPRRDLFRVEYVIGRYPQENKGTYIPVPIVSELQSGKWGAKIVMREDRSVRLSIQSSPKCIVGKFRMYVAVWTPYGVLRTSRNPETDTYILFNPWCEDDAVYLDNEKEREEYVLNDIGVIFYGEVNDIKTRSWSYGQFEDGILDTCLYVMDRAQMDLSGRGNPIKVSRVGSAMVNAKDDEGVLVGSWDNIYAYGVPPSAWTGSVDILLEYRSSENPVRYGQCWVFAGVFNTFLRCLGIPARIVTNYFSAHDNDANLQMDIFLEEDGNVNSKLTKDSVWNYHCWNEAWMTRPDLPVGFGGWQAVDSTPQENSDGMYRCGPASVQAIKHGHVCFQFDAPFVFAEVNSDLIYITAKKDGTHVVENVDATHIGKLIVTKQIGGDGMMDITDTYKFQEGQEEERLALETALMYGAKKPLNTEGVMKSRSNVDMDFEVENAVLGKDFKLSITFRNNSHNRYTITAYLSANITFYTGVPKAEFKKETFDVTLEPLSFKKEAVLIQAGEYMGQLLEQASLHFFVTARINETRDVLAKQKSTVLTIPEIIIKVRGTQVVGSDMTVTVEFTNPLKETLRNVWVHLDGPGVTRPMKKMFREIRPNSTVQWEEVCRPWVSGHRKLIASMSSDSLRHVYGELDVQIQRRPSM
Protocol: To evaluate the effect of inhibitor on human factor XIIIa (and other transglutaminases), a bi-substrate, fluorescence-based trans-glutamination assay was performed. Generally, 1 μL of inhibitor was diluted with 87 μL of pH 7.4 buffer (50 mM Tris-HCl, 1 mM CaCl2, 100 mM NaCl, and 2 mg/mL N,N-dimethylcasein) and 5 μL dithiothreitol (20 mM) at 37° C. followed by the addition of 2 μL of human factor XIIIa (0.3 μM) and incubation for 10 min. The activity of factor XIIIa was monitored following the addition of 5 μL of dansylcadaverine (2 mM) by measuring the initial rate of increase in fluorescence emission (λEx.=360 nm and λEm.=490 nm). Relative residual factor XIIIa activity at each concentration of the inhibitor was calculated from the ratio of factor XIIIa activity in the presence and absence of the inhibitor. Logistic Eq. 1 was used to fit the concentration dependence of residual […] activity so as to obtain the potency (IC50) and efficacy (ΔY %) of inhibition.
In this equation, Y is the ratio of residual […] activity in the presence of inhibitor to that in its absence, YM and Y0 are the maximum and minimum possible values of the fractional residual factor XIIIa activity, IC50 is the concentration of the inhibitor that leads to 50% inhibition of enzyme activity, and HS is the Hill slope. YM, Y0, IC50, and HS values are determined by nonlinear curve fitting of the data. The data is shown in FIG. 2 (top panel) and Table 1 below: […]

| SMILES | IC50 |
| --- | --- |
| C=C(CC)C(=O)c1ccc(OCC(=O)O)c(Cl)c1Cl [Formula II, 2-(2,3-dichloro-4-(2-methylenebutanoyl)phenoxy)acetic acid] | 105 µM |
| C=C(CC)C(=O)c1ccc(OCC(=O)OC)c(Cl)c1Cl [Formula III, methyl 2-(2,3-dichloro-4-(2-methylenebutanoyl)phenoxy)acetate] | 92 µM |
| C=C(CC)C(=O)c1ccc(OCC(=O)N(C)C)c(Cl)c1Cl [Formula V, 2-(2,3-dichloro-4-(2-methylenebutanoyl)phenoxy)-N,N-dimethylacetamide] | 75 µM |
| C=C(CC)C(=O)c1c(Cl)cc(OCC(=O)O)cc1Cl [Formula VI, 2-(3,5-dichloro-4-(2-methylenebutanoyl)phenoxy)acetic acid] | 51 µM |
| C=CC(=O)c1c(Cl)cc(OCC(=O)N(C)C)cc1Cl [Formula VIII, 2-(4-acryloyl-3,5-dichlorophenoxy)-N,N-dimethylacetamide] | 24 µM |

More lines, in order of falling IC50, values ahead:

| IC50 | SMILES |
| --- | --- |
| 100 µM | C=C(CC)C(=O)c1ccc(OCC(=O)NC)c(Cl)c1Cl [Formula IV, 2-(2,3-dichloro-4-(2-methylenebutanoyl)phenoxy)-N-methylacetamide] |
| 83 µM | C=CC(=O)c1ccc(OCC(=O)O)c(Cl)c1Cl [Formula VII, 2-(4-acryloyl-2,3-dichlorophenoxy)acetic acid] |

Source: patent publication US20240010602A1, “PHENYL UNSATURATED KETONES AS HUMAN FACTOR XIIIA INHIBITORS FOR TREATMENT OF THROMBOEMBOLIC DISEASES” (Xavier University of Louisiana, priority 2022, published 2024)
